Data reported in publication PMC7822874, “Chemoprotective antimalarials identified through quantitative high-throughput screening of Plasmodium blood and liver stage parasites” (Scientific Reports, 2021).
Like-named read-outs stand apart in the source and are kept apart here.

Assays:
[1] = system: P. falciparum Dd2 Cytb A122D; assay: SYBR Green ABS proliferation assay, NCGC00473217 selected clone F12; assay type: cell-based, Plasmodium falciparum
Method in brief: (§1)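 Asexual blood-stage proliferation of cytochrome b-mutant Dd2 clones after 72 h compound exposure at 37 °C in low-oxygen gas, quantified as control-normalized SYBR Green-I fluorescence; differences tested by two-sided t-test.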

[2] = system: P. falciparum Dd2 Cytb G131S; assay: SYBR Green ABS proliferation assay, NCGC00374598 selected clone C11; assay type: cell-based, Plasmodium falciparum
Method in brief: as §1

[3] = system: P. falciparum Dd2 Cytb F123L; assay: SYBR Green ABS proliferation assay, NCGC00473217 selected clone G08; assay type: cell-based, Plasmodium falciparum
Method in brief: as §1

[4] = system: P. falciparum Dd2 (clone B2) asexual blood stage parasites; assay: P. falciparum Dd2 asexual blood stage SYBR Green-I 72 h proliferation assay (qHTS); assay type: cell-based, Plasmodium falciparum
[5] = system: P. falciparum Dd2 Cytb V259L; assay: SYBR Green ABS proliferation assay, NCGC00473217 selected clone F06; assay type: cell-based, Plasmodium falciparum
Method in brief: as §1

[6] = system: P. falciparum Dd2 cytochrome b mutant lines; assay: Drug response of drug-selected cytochrome b mutant lines versus parental Dd2-B2 (panel); assay type: cell-based, Plasmodium falciparum; conditions: all cytochrome b mutant lines vs Dd2-B2
Protocol: As resistance selection studies implicated the parasite cytochrome bc1 complex in mediating reduced parasite susceptibility to both NCGC00473217 and NCGC00374598, we leveraged these drug-selected parasites to test for altered drug response to a panel of antimalarial compounds.
The P. falciparum parasite Dd2 line was cultured in vitro using standard conditions. […] Tissue culture flasks and assay plates were incubated at 37 °C under a gas mixture of 5% CO2, 5% O2 and 90% N2. […] Significant differences were assessed using two-sided Student’s t-tests. All HTS assays were stopped and read at 72 h. Percent response values represent relative growth as judged by SYBR Green-I fluorescence intensity values normalized to controls.

[7] = Rat liver microsomal stability (RLMS); conditions: rat liver microsomes; for half-life: rat
Protocol: (§2) Pharmacokinetic modeling experiments, parallel artificial membrane permeability assay (PAMPA), solubility, and rat liver microsome stability assessment were performed on all synthetic compounds, as previously described[73]–[75].

[8] = system: P. falciparum Dd2-B2 parasites; assay: In vitro resistance selection under constant drug pressure; assay type: cell-based, Plasmodium falciparum
Protocol: Recently cloned P. falciparum Dd2-B2 parasites, cultured in duplicate flasks each harboring an inoculum of 2 × 10^9 parasites, were subjected to constant drug pressure from NCGC00473217 at 5 × AC50 or NCGC00374598 at 3 × AC50. […] Clones were then obtained by limiting dilution and three to four clones from each flask were expanded for profiling and sequencing.
Fresh uninfected RBCs (0.5% hematocrit) were added on day 7 and media was changed every other day. […] Resistant parasites were maintained under drug media at a volume of 50 mL until a high parasitemia (> 5%) was achieved. Aliquots of the bulk resistant cultures were frozen in cryovials before cloning by limiting dilution in 96-well plates (seeded at 0.25 or 0.5 parasites/well)[70]. After 3 weeks of cloning, we screened for positive wells by flow cytometry with SYBR Green-stained cells. […] Parasites were harvested by saponin lysis at the trophozoite stage and genomic DNA was extracted using the QIAamp DNA Blood Midi Kit (Qiagen, Germantown, MD)[71].

[9] = Parallel artificial membrane permeability assay (PAMPA); assay type: in vitro ADME; conditions: for PAMPA pH7.4: pH 7.4
Protocol: as §2

[10] = system: luciferase-expressing P. berghei liver stage parasites in HepG2 cells; assay: Inhibition of liver-stage development assay (ILSDA), Method 2 (WRAIR, 96-well); assay type: cell-based, Plasmodium berghei; conditions: for AC50: Plasmodium berghei
Aqueous solubility = assay type: physicochemical; conditions: aqueous media
Protocol: as §2

in vitro = conditions: human, HepG2-A16-CD81EGFP cells, uninfected
[11] = system: P. berghei-ANKA-GFP-LucCON liver stage parasites in HepG2-A16-CD81EGFP cells; assay: P. berghei liver stage Pb-Luc assay, Method 1 (UCSD, 1536-well); assay type: cell-based, Plasmodium berghei; conditions: Plasmodium berghei
[12] = Plasmodium falciparum, DD2, NCGC00473217 selected clone, read-out: AC50 Log[M] ± SD, Cytb A122D (converted)
[13] = Plasmodium falciparum, DD2, Suppl Table 6, read-out: AC50 (mM), Dd2 Cytb A122D
[14] = Plasmodium falciparum, DD2, NCGC00374598 selected clone, read-out: AC50 Log[M] ± SD, Cytb G131S (converted)
[15] = Plasmodium falciparum, DD2, Suppl Table 6, read-out: AC50 (mM), Dd2 Cytb G131S
[16] = Plasmodium falciparum, DD2, NCGC00473217 selected clone, read-out: AC50 Log[M] ± SD, Cytb F123L (converted)
[17] = Plasmodium falciparum, DD2, Suppl Table 6, read-out: AC50 (mM), Dd2 Cytb F123L
[18] = Plasmodium falciparum, DD2, 72 h, SYBR Green 72 h, WT Dd2-B2, read-out: AC50 Log[M] ± SD, Dd2-B2 (parental line) (converted)
[19] = Plasmodium falciparum, DD2, Suppl Table 6, read-out: AC50 (mM), WT (Dd2-B2)
[20] = Plasmodium falciparum, DD2, NCGC00473217 selected clone, read-out: AC50 Log[M] ± SD, Cytb V259L (converted)
[21] = Plasmodium falciparum, DD2, Suppl Table 6, read-out: AC50 (mM), Dd2 Cytb V259L
[22] = Plasmodium falciparum, DD2, NCGC00473217 selected clone F12, read-out: AC50 [μM], Cytb A122D (converted)
[23] = Plasmodium falciparum, DD2, NCGC00374598 selected clone C11, read-out: AC50 [μM], Cytb G131S (converted)
[24] = Plasmodium falciparum, DD2, NCGC00473217 selected clone G08, highest concentration 29 µM, read-out: AC50 [μM], Cytb F123L (converted)
[25] = Plasmodium falciparum, DD2, 72 h, SYBR Green 72 h, approximate value in μM, read-out: AC50 [μM], Dd2-B2 (parental line) (converted)
[26] = Plasmodium falciparum, DD2, NCGC00473217 selected clone F06, read-out: AC50 [μM], Cytb V259L (converted)

| Structure (SMILES) | AC50 [1, 12] [M] | AC50 [1, 13] [M] | AC50 [2, 14] [M] | AC50 [2, 15] [M] | AC50 [3, 16] [M] | AC50 [3, 17] [M] | AC50 [4, 18] [M] | AC50 [4, 19] [M] | AC50 [5, 20] [M] | AC50 [5, 21] [M] | change in susceptibility across drug-selected lines [6] | half-life [7] [min] | AC50 [1, 22] [M] | AC50 [2, 23] [M] | AC50 [3, 24] [M] | PAMPA pH7.4 [9] | AC50 [4, 25] [M] | AC50 [5, 26] [M] | solubility (Aqueous solubility) [µg/mL] | also measured |
| --- | --- | --- | --- | --- | --- | --- | --- | --- | --- | --- | --- | --- | --- | --- | --- | --- | --- | --- | --- | --- |
| CO[C@H]1O[C@@H]2O[C@@]3(C)CC[C@H]4[C@H](C)CC[C@@H]([C@H]1C)[C@@]24OO3 [Artemether, artemether, reference compound] | 6.61e-08 | 6.68e-08 | 3.24e-08 | 3.22e-08 | 3.63e-08 | 3.61e-08 | 5.13e-08 | 5.11e-08 | 6.61e-08 | 6.68e-08 | no observed change in susceptibility | – | – | – | – | – | – | – | – | – |
| CCCN1C(CC(C)C)=NS(=O)(=O)c2cc(NC(=O)c3cccs3)ccc21 [NCGC00473217] | 2.82e-06 | 2.82e-06 | 6.76e-07 | 6.76e-07 | – | > 2.9e-05 | 2.19e-07 | – | 1.17e-06 | 1.17e-06 | – | 5 | 2.82e-06 | 6.8e-07 | > 2.9e-05 | 222 1e-6 cm/s | 2.19e-07 | 1.18e-06 | < 1 | AC50 [μM], Cytb F123L ([3]; NCGC00473217 selected clone G08, highest concentration 29 µM): greater than the maximum concentration tested; AC50 ([3]; NCGC00473217 selected clone G08, highest concentration 29 µM, read-out: AC50 [μM], Cytb F123L (converted)): > 2.9e-05 M; IC50 shift, F123L clone ([3]; versus parental): > 500 fold; Recrudescence under pressure ([8]; 2 × 10^9 parasites, 5 × AC50 (NCGC00473217) or 3 × AC50 (NCGC00374598)): 14 to 17 days; AC50 increase of selected clones ([8]; clones from selections with the same compound): 10 to 60 fold; Activity direction (Decrease / Inactive) ([10]; P. berghei liver stage, Method 2, dose response): Decrease; AC50 ([10]; HepG2, 48 h, 48 h, firefly luciferase reporter P. berghei line, read-out: ILSDA AC50): 112 nM; AC50 ([10]; HepG2, P. berghei liver stage, Method 2, dose response, read-out: Log AC50 (converted)): 112 nM; viability at 66 h (in vitro): 106%; AC50 ([11]; UCSD, read-out: liver stage AC50 (Method 1)): 3 nM; inhibition at 1 µM ([11]; 1 μM): > 90%; inhibition at 3 µM ([11]; 3 μM): > 95% |
| CCN(CC)CCCC(C)Nc1ccnc2cc(Cl)ccc12 (stereo not drawn) [chloroquine] | – | – | – | – | – | – | – | – | – | – | no observed change in susceptibility | – | – | – | – | – | – | – | – | – |
| OC(c1cc(C(F)(F)F)nc2c(C(F)(F)F)cccc12)C1CCCCN1 (stereo not drawn) [Mefloquine, mefloquine, reference compound] | 1.29e-07 | 1.28e-07 | 8.32e-08 | 8.41e-08 | 9.77e-08 | 9.79e-08 | 7.76e-08 | 7.78e-08 | 1.23e-07 | 1.23e-07 | no observed change in susceptibility | – | – | – | – | – | – | – | – | – |
| COc1cc2[nH]c(C)c(-c3ccc(Oc4ccc(OC(F)(F)F)cc4)cc3)c(=O)c2cc1Cl [ELQ-300, reference compound] | – | – | – | – | – | – | – | – | – | – | no observed change in susceptibility | – | – | – | – | – | – | – | – | AC50 Log[M] ± SD, Cytb A122D ([1]; NCGC00473217 selected clone): -7.39 Log[M]; AC50 ([1]; Suppl Table 6, read-out: AC50 (mM), Dd2 Cytb A122D): 4.06e-08 M; AC50 Log[M] ± SD, Cytb G131S ([2]; NCGC00374598 selected clone): -7.16 Log[M]; AC50 ([2]; Suppl Table 6, read-out: AC50 (mM), Dd2 Cytb G131S): 6.93e-08 M; AC50 Log[M] ± SD, Cytb F123L ([3]; NCGC00473217 selected clone): -7.68 Log[M]; AC50 ([3]; Suppl Table 6, read-out: AC50 (mM), Dd2 Cytb F123L): 2.11e-08 M; AC50 Log[M] ± SD, Dd2-B2 (parental line) ([4]; SYBR Green 72 h, WT Dd2-B2): -7.13 Log[M]; AC50 ([4]; Suppl Table 6, read-out: AC50 (mM), WT (Dd2-B2)): 7.5e-08 M; AC50 Log[M] ± SD, Cytb V259L ([5]; NCGC00473217 selected clone): -7.06 Log[M]; AC50 ([5]; Suppl Table 6, read-out: AC50 (mM), Dd2 Cytb V259L): 8.73e-08 M |
| CCCN1C(CC(C)C)=NS(=O)(=O)c2cc(NC(=O)c3ccc(F)s3)ccc21 [NCGC00523537] | 7.94e-07 | – | 3.16e-07 | – | – | – | 1.12e-07 | – | 8.91e-07 | – | – | 4.4 | 7.97e-07 | 3.17e-07 | > 2.9e-05 | 1480 1e-6 cm/s | 1.13e-07 | 8.94e-07 | < 1 | RLMS T1/2 [7]: poor stability; PAMPA permeability [9]: high permeability |
| CCN(CC)Cc1cc(Nc2ccnc3cc(Cl)ccc23)ccc1O [Amodiaquine, amodiaquine, reference compound] | 6.61e-08 | 6.68e-08 | 4.9e-08 | 4.91e-08 | 5.5e-08 | 5.51e-08 | 4.68e-08 | 4.73e-08 | 7.24e-08 | 7.21e-08 | no observed change in susceptibility | – | – | – | – | – | – | – | – | – |
| CCCN1C(CC(C)C)=NS(=O)(=O)c2cc(NC(=O)c3sccc3Cl)ccc21 [NCGC00531529] | 6.03e-07 | – | 5.89e-07 | – | – | – | 2.24e-06 | – | 3.72e-06 | – | – | 2.8 | 6.03e-07 | 5.86e-07 | > 2.9e-05 | 678 1e-6 cm/s | 2.25e-06 | 3.72e-06 | < 1 | – |
